Results taken from patent EP4786487A1, “PEPTIDE” (Peptidream Inc, priority 2023, dated 2025).
Starred links: 1 amine or outer side, 2 acyl side, 3 side chain; linkers in the order of their positions; H or OH if unused. Positions of bridges follow the written chain, without caps; N, C: chain ends. Non-standard residues stand in square brackets, D forms with d. Residues, ends and D or L forms follow the SMILES beside them. Phe(3-OCH2COOH) = N[C@@H](Cc1cccc(OCC(=O)O)c1)C(=O)O; Phe(4-COOH) = N[C@@H](Cc1ccc(C(=O)O)cc1)C(=O)O; Trp(7-aza) = N[C@@H](Cc1c[nH]c2ncccc12)C(=O)O; Bip = N[C@@H](Cc1ccc(-c2ccccc2)cc1)C(=O)O; Gly(N(CH2)3COOH) = O=C(O)CCCNCC(=O)O; X1 = CCCCCCC[C@H](N[*:1])C(=O)[*:2]; NMeF = CN[C@@H](Cc1ccccc1)C(=O)O; 4Pal = N[C@@H](Cc1ccncc1)C(=O)O; NMeA = CN[C@@H](C)C(=O)O; Sar = CNCC(=O)O

Columns and labels:
Type in all cases: cell-based
[1] = target: T1, Myostatin (Homo sapiens, UniProt O14793); assay: Reporter gene assay for myostatin signaling in HepG2 cell line, Evaluation Procedure (1), myostatin inhibition; settings: Method A: Myostatin 10 ng/mL; read-out: IC50 (Luciferase) Myostatin HepG2
T1 construct: active myostatin (also called mature myostatin) is a homodimer consisting of two C-terminal growth factor domains; purchased R&D systems 788-G8/CF
T1 sequence (O14793 267-375): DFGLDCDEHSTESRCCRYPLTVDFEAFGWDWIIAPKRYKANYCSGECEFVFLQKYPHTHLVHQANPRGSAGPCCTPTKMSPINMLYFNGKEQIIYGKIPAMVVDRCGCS
Procedure, shortened: (§1)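 HepG2 cells transfected with pGL3(CAGA)12-luciferase reporter, serum-starved in 0.1% BSA medium, then stimulated with myostatin or GDF-11 plus 4-fold peptide dilutions (0.006–100 nmol/L for myostatin, 0.12–2000 nmol/L for GDF-11) for 20–24 h at 37 °C. Luminescence read with One-Glo; IC50 calculated.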

[2] = system: Myostatin; assay: as above; settings: Method A; GDF-11 IC50 versus Myostatin IC50
Procedure, shortened: as §1

[3] = target: T2, GDF-11 (Homo sapiens, UniProt O95390); assay: Reporter gene assay for myostatin signaling in HepG2 cell line, Evaluation Procedure (1), GDF-11 inhibition; settings: Method A: GDF-11 10 ng/mL; read-out: IC50 (Luciferase) GDF-11 HepG2
T2 construct: purchased R&D systems 1958-GD-G8/CF
T2 sequence (O95390 299-407): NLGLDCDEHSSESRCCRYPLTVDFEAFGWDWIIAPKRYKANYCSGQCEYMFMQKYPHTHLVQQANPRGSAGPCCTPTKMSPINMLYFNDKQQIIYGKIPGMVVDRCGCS
Procedure, shortened: as §1

IC50 [1] [nM]	IC50 [3] [nM]	SMILES	Selectivity [2]
4.5	214	CCCCCCC[C@@H]1NC(=O)[C@H](Cc2ccccc2)N(C)C(=O)[C@H](CCCNC(=N)N)NC(=O)[C@H](Cc2ccc(C(=O)O)cc2)NC(=O)[C@H](Cc2ccc(O)cc2)NC(=O)CN(C)C(=O)[C@H]([C@@H](C)CC)NC(=O)[C@H](Cc2ccccc2)N(C)C(=O)[C@H](Cc2ccc(O)cc2)NC(=O)[C@H](Cc2c[nH]c3ccccc23)NC(=O)[C@H](C)NC(=O)CN(CCCC(=O)O)C(=O)CSC[C@H](C(=O)O)NC(=O)[C@H](Cc2ccccc2)N(C)C(=O)[C@H](C)N(C)C1=O [Myostatin_99_v167] ({CH2CO}-[Gly(N(CH2)3COOH)]AWY[NMeF]I[Sar]Y[Phe(4-COOH)]R[NMeF][X1][NMeA][NMeF][dC]-OH; thioether N-15)	48
2.1	119	CCCCCCC[C@@H]1NC(=O)[C@H](Cc2ccccc2)N(C)C(=O)[C@H](CCCNC(=N)N)NC(=O)[C@H](Cc2ccc(C(=O)O)cc2)NC(=O)[C@H](Cc2ccc(O)cc2)NC(=O)CN(C)C(=O)[C@H]([C@@H](C)CC)NC(=O)[C@H](Cc2ccccc2)N(C)C(=O)[C@H](Cc2ccc(O)cc2)NC(=O)[C@H](Cc2c[nH]c3ncccc23)NC(=O)[C@H](C)NC(=O)CN(CCCC(=O)O)C(=O)CSC[C@H](C(=O)O)NC(=O)[C@H](Cc2ccccc2)N(C)C(=O)[C@H](C)N(C)C1=O [Myostatin_99_v168] ({CH2CO}-[Gly(N(CH2)3COOH)]A[Trp(7-aza)]Y[NMeF]I[Sar]Y[Phe(4-COOH)]R[NMeF][X1][NMeA][NMeF][dC]-OH; thioether N-15)	57
1.2	372	CCCCCCC[C@@H]1NC(=O)[C@H](Cc2ccccc2)N(C)C(=O)[C@H](CCCNC(=N)N)NC(=O)[C@H](Cc2ccc(C(=O)O)cc2)NC(=O)[C@H](Cc2ccncc2)NC(=O)CN(C)C(=O)[C@H]([C@@H](C)CC)NC(=O)[C@H](Cc2ccccc2)N(C)C(=O)[C@H](Cc2ccc(O)cc2)NC(=O)[C@H](Cc2c[nH]c3ccccc23)NC(=O)[C@H](C)NC(=O)CN(CCCC(=O)O)C(=O)CSC[C@H](C(=O)O)NC(=O)[C@H](Cc2ccccc2)N(C)C(=O)[C@H](C)N(C)C1=O [Myostatin_99_v169] ({CH2CO}-[Gly(N(CH2)3COOH)]AWY[NMeF]I[Sar][4Pal][Phe(4-COOH)]R[NMeF][X1][NMeA][NMeF][dC]-OH; thioether N-15)	310
3.3	215	CCCCCCC[C@@H]1NC(=O)[C@H](Cc2ccccc2)N(C)C(=O)[C@H](CCCNC(=N)N)NC(=O)[C@H](Cc2ccc(C(=O)O)cc2)NC(=O)[C@H](Cc2ccncc2)NC(=O)CN(C)C(=O)[C@H]([C@@H](C)CC)NC(=O)[C@H](Cc2ccccc2)N(C)C(=O)[C@H](Cc2ccc(O)cc2)NC(=O)[C@H](Cc2c[nH]c3ncccc23)NC(=O)[C@H](C)NC(=O)CN(CCCC(=O)O)C(=O)CSC[C@H](C(=O)O)NC(=O)[C@H](Cc2ccccc2)N(C)C(=O)[C@H](C)N(C)C1=O [Myostatin_99_v170] ({CH2CO}-[Gly(N(CH2)3COOH)]A[Trp(7-aza)]Y[NMeF]I[Sar][4Pal][Phe(4-COOH)]R[NMeF][X1][NMeA][NMeF][dC]-OH; thioether N-15)	65
44.7	909	CC[C@H](C)[C@@H]1NC(=O)[C@H](Cc2ccccc2)N(C)C(=O)[C@H](Cc2ccc(O)cc2)NC(=O)[C@H](Cc2c[nH]c3ccccc23)NC(=O)[C@H](CO)NC(=O)CN(CCCC(=O)O)C(=O)CSC[C@H](C(=O)O)NC(=O)[C@H](Cc2ccccc2)N(C)C(=O)[C@H](C)N(C)C(=O)[C@H](CC(C)C)NC(=O)[C@H](Cc2ccccc2)N(C)C(=O)[C@H](CCCNC(=N)N)NC(=O)[C@H](Cc2ccc(C(=O)O)cc2)NC(=O)[C@H](Cc2ccc(O)cc2)NC(=O)CN(C)C1=O [Myostatin_99_v171] ({CH2CO}-[Gly(N(CH2)3COOH)]SWY[NMeF]I[Sar]Y[Phe(4-COOH)]R[NMeF]L[NMeA][NMeF][dC]-OH; thioether N-15)	20
5.1	173	CC[C@H](C)[C@@H]1NC(=O)[C@H](Cc2ccccc2)N(C)C(=O)[C@H](Cc2ccc(O)cc2)NC(=O)[C@H](Cc2c[nH]c3ccccc23)NC(=O)[C@H](C)NC(=O)[C@H](C)NC(=O)CSC[C@H](C(=O)O)NC(=O)[C@H](Cc2ccccc2)N(C)C(=O)[C@H](C)N(C)C(=O)[C@H](CC(C)C)NC(=O)[C@H](Cc2ccccc2)N(C)C(=O)[C@H](CCCNC(=N)N)NC(=O)[C@H](Cc2ccc(C(=O)O)cc2)NC(=O)[C@H](Cc2ccc(O)cc2)NC(=O)CN(C)C1=O [Myostatin_99_v172] ({CH2CO}-AAWY[NMeF]I[Sar]Y[Phe(4-COOH)]R[NMeF]L[NMeA][NMeF][dC]-OH; thioether N-15)	34
5.5	232	CCCCCCC[C@@H]1NC(=O)[C@H](Cc2ccccc2)N(C)C(=O)[C@H](CCCNC(=N)N)NC(=O)[C@H](Cc2ccc(C(=O)O)cc2)NC(=O)[C@H](Cc2ccc(O)cc2)NC(=O)CN(C)C(=O)[C@H]([C@@H](C)CC)NC(=O)[C@H](Cc2ccccc2)N(C)C(=O)[C@H](Cc2ccc(O)cc2)NC(=O)[C@H](Cc2c[nH]c3ccccc23)NC(=O)[C@H](CO)NC(=O)CN(CCCC(=O)O)C(=O)CSC[C@H](C(=O)O)NC(=O)[C@H](Cc2ccccc2)N(C)C(=O)[C@H](C)N(C)C1=O [Myostatin_99_v173] ({CH2CO}-[Gly(N(CH2)3COOH)]SWY[NMeF]I[Sar]Y[Phe(4-COOH)]R[NMeF][X1][NMeA][NMeF][dC]-OH; thioether N-15)	42
1.7	226	CCCCCCC[C@@H]1NC(=O)[C@H](Cc2ccccc2)N(C)C(=O)[C@H](CCCNC(=N)N)NC(=O)[C@H](Cc2ccc(C(=O)O)cc2)NC(=O)[C@H](Cc2cccc(OCC(=O)O)c2)NC(=O)CN(C)C(=O)[C@H]([C@@H](C)CC)NC(=O)[C@H](Cc2ccccc2)N(C)C(=O)[C@H](Cc2ccc(O)cc2)NC(=O)[C@H](Cc2c[nH]c3ccccc23)NC(=O)[C@H](C)NC(=O)[C@H](C)NC(=O)CSC[C@H](C(=O)O)NC(=O)[C@H](Cc2ccccc2)N(C)C(=O)[C@H](C)N(C)C1=O [Myostatin_99_v174] ({CH2CO}-AAWY[NMeF]I[Sar][Phe(3-OCH2COOH)][Phe(4-COOH)]R[NMeF][X1][NMeA][NMeF][dC]-OH; thioether N-15)	133
16.4	399	CC[C@H](C)[C@@H]1NC(=O)[C@H](Cc2ccccc2)N(C)C(=O)[C@H](Cc2ccc(O)cc2)NC(=O)[C@H](Cc2c[nH]c3ccccc23)NC(=O)[C@H](CO)NC(=O)[C@H](C)NC(=O)CSC[C@H](C(=O)O)NC(=O)[C@H](Cc2ccccc2)N(C)C(=O)[C@H](C)N(C)C(=O)[C@H](CC(C)C)NC(=O)[C@H](Cc2ccccc2)N(C)C(=O)[C@H](CCCNC(=N)N)NC(=O)[C@H](Cc2ccc(C(=O)O)cc2)NC(=O)[C@H](Cc2ccc(O)cc2)NC(=O)CN(C)C1=O [Myostatin_99_v175] ({CH2CO}-ASWY[NMeF]I[Sar]Y[Phe(4-COOH)]R[NMeF]L[NMeA][NMeF][dC]-OH; thioether N-15)	24
17.3	377	CC[C@H](C)[C@@H]1NC(=O)[C@H](Cc2ccccc2)N(C)C(=O)[C@H](Cc2ccc(O)cc2)NC(=O)[C@H](Cc2ccc(-c3ccccc3)cc2)NC(=O)[C@H](C)NC(=O)CN(CCCC(=O)O)C(=O)CSC[C@H](C(=O)O)NC(=O)[C@H](Cc2ccccc2)N(C)C(=O)[C@H](C)N(C)C(=O)[C@H](CC(C)C)NC(=O)[C@H](Cc2ccccc2)N(C)C(=O)[C@H](CCCNC(=N)N)NC(=O)[C@H](Cc2ccc(C(=O)O)cc2)NC(=O)[C@H](Cc2ccc(O)cc2)NC(=O)CN(C)C1=O [Myostatin_99_v176] ({CH2CO}-[Gly(N(CH2)3COOH)]A[Bip]Y[NMeF]I[Sar]Y[Phe(4-COOH)]R[NMeF]L[NMeA][NMeF][dC]-OH; thioether N-15)	22
12.1	250	CC[C@H](C)[C@@H]1NC(=O)[C@H](Cc2ccccc2)N(C)C(=O)[C@H](Cc2ccc(O)cc2)NC(=O)[C@H](Cc2c[nH]c3ccccc23)NC(=O)[C@H](C)NC(=O)CN(CCCC(=O)O)C(=O)CSC[C@H](C(=O)O)NC(=O)[C@H](Cc2ccccc2)N(C)C(=O)[C@H](C)N(C)C(=O)[C@H](CC(C)C)NC(=O)[C@H](Cc2ccccc2)N(C)C(=O)[C@H](CCCNC(=N)N)NC(=O)[C@H](Cc2ccc(C(=O)O)cc2)NC(=O)[C@H](Cc2ccc(O)cc2)NC(=O)[C@H](C)N(C)C1=O [Myostatin_99_v178] ({CH2CO}-[Gly(N(CH2)3COOH)]AWY[NMeF]I[NMeA]Y[Phe(4-COOH)]R[NMeF]L[NMeA][NMeF][dC]-OH; thioether N-15)	21
1.5	163	CCCCCCC[C@@H]1NC(=O)[C@H](Cc2ccccc2)N(C)C(=O)[C@H](CCCNC(=N)N)NC(=O)[C@H](Cc2ccc(C(=O)O)cc2)NC(=O)[C@H](Cc2ccc(O)cc2)NC(=O)CN(C)C(=O)[C@H]([C@@H](C)CC)NC(=O)[C@H](Cc2ccccc2)N(C)C(=O)[C@H](Cc2ccc(O)cc2)NC(=O)[C@H](Cc2ccc(-c3ccccc3)cc2)NC(=O)[C@H](C)NC(=O)CN(CCCC(=O)O)C(=O)CSC[C@H](C(=O)O)NC(=O)[C@H](Cc2ccccc2)N(C)C(=O)[C@H](C)N(C)C1=O [Myostatin_99_v179] ({CH2CO}-[Gly(N(CH2)3COOH)]A[Bip]Y[NMeF]I[Sar]Y[Phe(4-COOH)]R[NMeF][X1][NMeA][NMeF][dC]-OH; thioether N-15)	108
